Reference: patent US8192962B2, “Processes for detecting toxic substances” (Daikin Industries, Ltd., priority 2001, dated 2012)

Test system: Mitochondria-located protein genes
Test: DNA chip mRNA expression in yeast, mitochondria-located protein genes (Table 2)
Type: cell-based, Saccharomyces cerevisiae S288C
Details: cells incubated two hours with the chemical substance
In short: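 Cells were grown at 25° C. in YPD, treated at logarithmic phase for 2 h with a chemical at a concentration inhibiting growth but not causing death, and compared with untreated cultures. Labeled cDNA was hybridized to a DNA chip carrying all yeast genes, and the expression ratio was taken from scanner fluorescence.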

[Cl][Hg][Cl] [(3), HgCl2]
The level of expressed mRNA in the presence of chemical substance/The level of expressed mRNA in the absence of chemical substance (yeast gene YJR121W): 3.3
The level of expressed mRNA in the presence of chemical substance/The level of expressed mRNA in the absence of chemical substance (yeast gene YKL003C): 0.8
The level of expressed mRNA in the presence of chemical substance/The level of expressed mRNA in the absence of chemical substance (yeast gene YKL016C): 0.7
The level of expressed mRNA in the presence of chemical substance/The level of expressed mRNA in the absence of chemical substance (yeast gene YKL141W): 4.7
The level of expressed mRNA in the presence of chemical substance/The level of expressed mRNA in the absence of chemical substance (yeast gene YKL142W): 3.1
The level of expressed mRNA in the presence of chemical substance/The level of expressed mRNA in the absence of chemical substance (yeast gene YKL148C): 3.7
The level of expressed mRNA in the presence of chemical substance/The level of expressed mRNA in the absence of chemical substance (yeast gene YKL170W): 0.5
The level of expressed mRNA in the presence of chemical substance/The level of expressed mRNA in the absence of chemical substance (yeast gene YKL194C): 0.8
The level of expressed mRNA in the presence of chemical substance/The level of expressed mRNA in the absence of chemical substance (yeast gene YKR066C): 5.5
The level of expressed mRNA in the presence of chemical substance/The level of expressed mRNA in the absence of chemical substance (yeast gene YLL041C): 4.6
The level of expressed mRNA in the presence of chemical substance/The level of expressed mRNA in the absence of chemical substance (yeast gene YLR038C): 0.6
The level of expressed mRNA in the presence of chemical substance/The level of expressed mRNA in the absence of chemical substance (yeast gene YLR259C): 3.1
The level of expressed mRNA in the presence of chemical substance/The level of expressed mRNA in the absence of chemical substance (yeast gene YLR295C): 1.1
The level of expressed mRNA in the presence of chemical substance/The level of expressed mRNA in the absence of chemical substance (yeast gene YLR304C): 5.0
The level of expressed mRNA in the presence of chemical substance/The level of expressed mRNA in the absence of chemical substance (yeast gene YLR348C): 1.2
The level of expressed mRNA in the presence of chemical substance/The level of expressed mRNA in the absence of chemical substance (yeast gene YLR395C): 2.2
The level of expressed mRNA in the presence of chemical substance/The level of expressed mRNA in the absence of chemical substance (yeast gene YML054C): 1.3
The level of expressed mRNA in the presence of chemical substance/The level of expressed mRNA in the absence of chemical substance (yeast gene YML120C): 1.9
The level of expressed mRNA in the presence of chemical substance/The level of expressed mRNA in the absence of chemical substance (yeast gene YML129C): 0.9
The level of expressed mRNA in the presence of chemical substance/The level of expressed mRNA in the absence of chemical substance (yeast gene YMR023C): 0.5
The level of expressed mRNA in the presence of chemical substance/The level of expressed mRNA in the absence of chemical substance (yeast gene YMR035W): 1.5
The level of expressed mRNA in the presence of chemical substance/The level of expressed mRNA in the absence of chemical substance (yeast gene YMR083W): 2.6
The level of expressed mRNA in the presence of chemical substance/The level of expressed mRNA in the absence of chemical substance (yeast gene YMR089C): 0.9
The level of expressed mRNA in the presence of chemical substance/The level of expressed mRNA in the absence of chemical substance (yeast gene YMR152W): 1.8
The level of expressed mRNA in the presence of chemical substance/The level of expressed mRNA in the absence of chemical substance (yeast gene YMR203W): 3.0
The level of expressed mRNA in the presence of chemical substance/The level of expressed mRNA in the absence of chemical substance (yeast gene YMR267W): 0.7
The level of expressed mRNA in the presence of chemical substance/The level of expressed mRNA in the absence of chemical substance (yeast gene YNL055C): 5.5
The level of expressed mRNA in the presence of chemical substance/The level of expressed mRNA in the absence of chemical substance (yeast gene YNL071W): 1.7
The level of expressed mRNA in the presence of chemical substance/The level of expressed mRNA in the absence of chemical substance (yeast gene YNL073W): 0.9
The level of expressed mRNA in the presence of chemical substance/The level of expressed mRNA in the absence of chemical substance (yeast gene YNL104C): 3.0
The level of expressed mRNA in the presence of chemical substance/The level of expressed mRNA in the absence of chemical substance (yeast gene YNL256W): 0.6
The level of expressed mRNA in the presence of chemical substance/The level of expressed mRNA in the absence of chemical substance (yeast gene YOL096C): 1.2
The level of expressed mRNA in the presence of chemical substance/The level of expressed mRNA in the absence of chemical substance (yeast gene YOR020C): 1.7
The level of expressed mRNA in the presence of chemical substance/The level of expressed mRNA in the absence of chemical substance (yeast gene YOR037W): 0.6
The level of expressed mRNA in the presence of chemical substance/The level of expressed mRNA in the absence of chemical substance (yeast gene YOR100C): 1.6
The level of expressed mRNA in the presence of chemical substance/The level of expressed mRNA in the absence of chemical substance (yeast gene YOR130C): 1.4
The level of expressed mRNA in the presence of chemical substance/The level of expressed mRNA in the absence of chemical substance (yeast gene YOR142W): 3.4
The level of expressed mRNA in the presence of chemical substance/The level of expressed mRNA in the absence of chemical substance (yeast gene YOR150W): 1.0
The level of expressed mRNA in the presence of chemical substance/The level of expressed mRNA in the absence of chemical substance (yeast gene YOR176W): 2.7
The level of expressed mRNA in the presence of chemical substance/The level of expressed mRNA in the absence of chemical substance (yeast gene YOR187W): 1.9
The level of expressed mRNA in the presence of chemical substance/The level of expressed mRNA in the absence of chemical substance (yeast gene YOR316C): 1.5
The level of expressed mRNA in the presence of chemical substance/The level of expressed mRNA in the absence of chemical substance (yeast gene YPL040C): 0.8
The level of expressed mRNA in the presence of chemical substance/The level of expressed mRNA in the absence of chemical substance (yeast gene YPL134C): 1.6
The level of expressed mRNA in the presence of chemical substance/The level of expressed mRNA in the absence of chemical substance (yeast gene YPL135W): 2.5
The level of expressed mRNA in the presence of chemical substance/The level of expressed mRNA in the absence of chemical substance (yeast gene YPL215W): 1.0
The level of expressed mRNA in the presence of chemical substance/The level of expressed mRNA in the absence of chemical substance (yeast gene YPL262W): 3.8
The level of expressed mRNA in the presence of chemical substance/The level of expressed mRNA in the absence of chemical substance (yeast gene YPR024W): 1.3
The level of expressed mRNA in the presence of chemical substance/The level of expressed mRNA in the absence of chemical substance (yeast gene YPR037C): 1.6
The level of expressed mRNA in the presence of chemical substance/The level of expressed mRNA in the absence of chemical substance (yeast gene YPR047W): 0.9
The level of expressed mRNA in the presence of chemical substance/The level of expressed mRNA in the absence of chemical substance (yeast gene YPR134W): 0.8
